{"source": "patent US20140208977A1", "about": "“POLYDISPERSE COMPOSITIONS AND METHODS FOR ELIMINATING VOLATILE ORGANIC COMPOUNDS” (priority 2013, published 2014)", "origin": "cited, not measured here", "data": [{"conditions": "77° F.", "units": {"Vapor Pressure": "mmHg"}, "values": [{"smiles": "C[Si]1(C)O[Si](C)(C)O[Si](C)(C)O[Si](C)(C)O[Si](C)(C)O[Si](C)(C)O1", "note": "[Dodecamethylcyclohexasiloxane]", "Vapor Pressure": 0.02}, {"smiles": "C[Si]1(C)O[Si](C)(C)O[Si](C)(C)O[Si](C)(C)O1", "note": "[Octamethylcyclotetrasiloxane]", "Vapor Pressure": 1.3}, {"smiles": "C[Si](C)(C)O[Si](C)(C)O[Si](C)(C)O[Si](C)(C)C", "note": "[Decamethyltetrasiloxane]", "Vapor Pressure": 0.55}, {"smiles": "C[Si](C)(C)O[Si](C)(C)C", "note": "[Hexamethyldisiloxane]", "Vapor Pressure": 31}, {"smiles": "C[Si](C)(C)O[Si](C)(C)O[Si](C)(C)C", "note": "[Octamethyltrisiloxane]", "Vapor Pressure": 3.9}, {"smiles": "C[Si]1(C)O[Si](C)(C)O[Si](C)(C)O[Si](C)(C)O[Si](C)(C)O1", "note": "[Decamethylcyclopentasiloxane]", "Vapor Pressure": 0.4}, {"smiles": "C[Si](C)(C)O[Si](C)(C)O[Si](C)(C)O[Si](C)(C)O[Si](C)(C)C", "note": "[Dodecamethylpentasiloxane]", "Vapor Pressure": 0.7}]}, {"conditions": "25° C.", "units": {"Water Solubility": "µg/mL"}, "values": [{"smiles": "C[Si](C)(C)O[Si](C)(C)O[Si](C)(C)C", "note": "[Octamethyltrisiloxane]", "Water Solubility": 0.035}, {"smiles": "C[Si]1(C)O[Si](C)(C)O[Si](C)(C)O1", "note": "[Hexamethylcyclotrisiloxane]", "Water Solubility": 1.56}]}]}
